This test has as its system BDF1 mice, s.c. Lewis lung carcinoma, T/C %. The experiment in a line: NCI In Vivo Anticancer Drug Screen. Data for tumor model Lewis Lung Carcinoma (subcutaneous) in B6D2F1 (BDF1) mice. How it is done:
The antitumor activity of compounds was measured in mice bearing transplantable tumors. Survival or tumor size were measured and the results are expressed as the measurement made in the treated group (T) divided by the measurement made in the vehicle treated control group (C). The tumor model used in this assay is Lewis Lung Carcinoma (subcutaneous) in B6D2F1 (BDF1) mice

The mark [1] stands for this setting: endpoint: mean tumor weight, dose: 15.0 mg/kg/injection, schedule: Q01DX011 (ip), vehicle: saline, higher = larger tumour.

Consider twelve compounds from PubChem BioAssay AID270 (DTP/NCI, 2004).

Values joined by “and” are separate entries in the source; they are usually repeats but may differ in a detail not shown here. Equal entries are not always repeated. Results filed as inconclusive are left out.

For `Nc1nc(SCc2ccc([N+](=O)[O-])cc2)c2[nH]cnc2n1`, the T/C was 98 % of control (endpoint: mean tumor weight, dose: 125.0 mg/kg/injection, schedule: Q01DX011 (ip), vehicle: other, higher = larger tumour); 75 % of control (endpoint: mean tumor weight, dose: 250.0 mg/kg/injection, schedule: Q01DX011 (ip), vehicle: other, higher = larger tumour); 80 % of control (endpoint: mean tumor weight, dose: 500.0 mg/kg/injection, schedule: Q01DX011 (ip), vehicle: other, higher = larger tumour); 36 % of control (endpoint: mean tumor weight, dose: 1000.0 mg/kg/injection, schedule: Q01DX011 (ip), vehicle: other, higher = larger tumour).

Turning to `CN(N=O)C(=O)N[C@@H](C=O)[C@@H](O)[C@H](O)[C@H](O)CO`, the T/C (endpoint: mean tumor weight (est.), dose: 20.0 mg/kg/injection, schedule: Q01DX009 (ip), vehicle: water, higher = larger tumour) was 93 % of control; the T/C (endpoint: mean tumor weight (est.), dose: 40.0 mg/kg/injection, schedule: Q01DX009 (ip), vehicle: water, higher = larger tumour) was 65 % of control; the T/C (endpoint: mean tumor weight (est.), dose: 80.0 mg/kg/injection, schedule: Q01DX009 (ip), vehicle: water, higher = larger tumour) was 42 % of control; the T/C (endpoint: median survival time, dose: 20.0 mg/kg/injection, schedule: Q01DX009 (ip), vehicle: water, higher = longer survival) was 115 % of control; the T/C (endpoint: median survival time, dose: 40.0 mg/kg/injection, schedule: Q01DX001 (ip), vehicle: other, higher = longer survival) was 99 % of control and 105 % of control; the T/C (endpoint: median survival time, dose: 40.0 mg/kg/injection, schedule: Q01DX001 (ip), vehicle: saline, higher = longer survival) is 86 % of control. For the same compound, the T/C runs as follows: (endpoint: median survival time, dose: 40.0 mg/kg/injection, schedule: Q01DX009 (ip), vehicle: water, higher = longer survival) 94 % of control; (endpoint: median survival time, dose: 80.0 mg/kg/injection, schedule: Q01DX001 (ip), vehicle: other, higher = longer survival) 90 % of control and 108 % of control; (endpoint: median survival time, dose: 80.0 mg/kg/injection, schedule: Q01DX001 (ip), vehicle: saline, higher = longer survival) 94 % of control; (endpoint: median survival time, dose: 160.0 mg/kg/injection, schedule: Q01DX001 (ip), vehicle: other, higher = longer survival) 98 % of control and 111 % of control; (endpoint: median survival time, dose: 160.0 mg/kg/injection, schedule: Q01DX001 (ip), vehicle: saline, higher = longer survival) 108 % of control; (endpoint: median survival time, dose: 320.0 mg/kg/injection, schedule: Q01DX001 (ip), vehicle: other, higher = longer survival) 99 % of control. For the same compound, where the note is “endpoint: median survival time, dose: 320.0 mg/kg/injection, schedule: Q01DX001 (ip), vehicle: saline, higher = longer survival”, the T/C is 91 % of control.

Take `COC1C(OC(=O)c2ccc(C)[nH]2)C(O)C(Oc2ccc3c(O)c(NC(=O)c4ccc(O)c(CC=C(C)C)c4)c(=O)oc3c2Cl)OC1(C)C` (stereo unspecified): the T/C (endpoint: median survival time, dose: 0.38 mg/kg/injection, schedule: Q01DX009 (ip), vehicle: other, higher = longer survival) was 113 % of control; the T/C (endpoint: median survival time, dose: 0.75 mg/kg/injection, schedule: Q01DX009 (ip), vehicle: other, higher = longer survival) is 91 % of control; the T/C (endpoint: median survival time, dose: 3.0 mg/kg/injection, schedule: Q01DX007 (ip), vehicle: other, higher = longer survival) was 88 % of control; the T/C (endpoint: median survival time, dose: 3.0 mg/kg/injection, schedule: Q01DX009 (ip), vehicle: other, higher = longer survival) was 117 % of control; the T/C (endpoint: median survival time, dose: 6.0 mg/kg/injection, schedule: Q01DX007 (ip), vehicle: other, higher = longer survival) was 93 % of control; the T/C (endpoint: median survival time, dose: 6.0 mg/kg/injection, schedule: Q01DX009 (ip), vehicle: other, higher = longer survival) is 98 % of control. The T/C (endpoint: median survival time, dose: 12.0 mg/kg/injection, schedule: Q01DX007 (ip), vehicle: other, higher = longer survival) was 98 % of control; the T/C (endpoint: median survival time, dose: 24.0 mg/kg/injection, schedule: Q01DX007 (ip), vehicle: other, higher = longer survival) is 91 % of control; the T/C (endpoint: median survival time, dose: 24.0 mg/kg/injection, schedule: Q01DX009 (ip), vehicle: other, higher = longer survival) was 88 % of control; the T/C (endpoint: median survival time, dose: 25.0 mg/kg/injection, schedule: Q01DX009 (ip), vehicle: other, higher = longer survival) is 90 % of control; the T/C (endpoint: median survival time, dose: 48.0 mg/kg/injection, schedule: Q01DX007 (ip), vehicle: other, higher = longer survival) was 107 % of control; the T/C (endpoint: median survival time, dose: 50.0 mg/kg/injection, schedule: Q01DX009 (ip), vehicle: other, higher = longer survival) is 105 % of control.

For the compound `COc1cc(C(=O)OC2CC34CCNC35CC(OC5(OC)C2O)c2cc3c(cc24)OCO3)ccc1O` (stereo unspecified), the T/C is, setting by setting: (endpoint: mean tumor weight, dose: 0.25 mg/kg/injection, schedule: Q01DX011 (ip), vehicle: carboxymethylcellulose (CMC), higher = larger tumour) 41 % of control; (endpoint: mean tumor weight, dose: 0.5 mg/kg/injection, schedule: Q01DX011 (ip), vehicle: carboxymethylcellulose (CMC), higher = larger tumour) 50 % of control; (endpoint: mean tumor weight, dose: 1.0 mg/kg/injection, schedule: Q01DX011 (ip), vehicle: carboxymethylcellulose (CMC), higher = larger tumour) 87 % of control.

Regarding `Cc1nc(N)c(C)c(C(=O)O)n1`, the T/C was 113 % of control (endpoint: median survival time, dose: 50.0 mg/kg/injection, schedule: Q01DX009 (ip), vehicle: water, higher = longer survival); 117 % of control (endpoint: median survival time, dose: 100.0 mg/kg/injection, schedule: Q01DX009 (ip), vehicle: water, higher = longer survival); 116 % of control (endpoint: median survival time, dose: 200.0 mg/kg/injection, schedule: Q01DX009 (ip), vehicle: water, higher = longer survival).

As for `CC(=O)c1c(O)c(C)c(O)c(Cc2c(O)c3c(c(C(=O)/C=C/c4ccccc4)c2O)OC(C)(C)C=C3)c1O`, the T/C under setting [1] was 96 % of control; the T/C (endpoint: mean tumor weight, dose: 22.0 mg/kg/injection, schedule: Q01DX011 (ip), vehicle: saline, higher = larger tumour) is 82 % of control; the T/C (endpoint: mean tumor weight, dose: 35.0 mg/kg/injection, schedule: Q01DX011 (ip), vehicle: saline, higher = larger tumour) is 79 % of control.

With `C[N+](C)(C)c1ncnc2nc[nH]c12`, the T/C runs as follows: under setting [1], 87 % of control; (endpoint: mean tumor weight, dose: 30.0 mg/kg/injection, schedule: Q01DX011 (ip), vehicle: saline, higher = larger tumour) 100 % of control; (endpoint: mean tumor weight, dose: 60.0 mg/kg/injection, schedule: Q01DX011 (ip), vehicle: saline, higher = larger tumour) 55 % of control; (endpoint: mean tumor weight, dose: 120.0 mg/kg/injection, schedule: Q01DX011 (ip), vehicle: saline, higher = larger tumour) 59 % of control.

For `C[C@]1(O)CC[C@H]2[C@@H]3CCC4=CC(=O)CC[C@]4(C)[C@@]3(F)[C@@H](O)C[C@@]21C`, the T/C runs as follows: (endpoint: median survival time, dose: 12.5 mg/kg/injection, schedule: Q02DX009 (ip), vehicle: Klucel (hydroxypropylcellulose) (HPC), higher = longer survival) 103 % of control; (endpoint: median survival time, dose: 25.0 mg/kg/injection, schedule: Q02DX009 (ip), vehicle: Klucel (hydroxypropylcellulose) (HPC), higher = longer survival) 93 % of control; (endpoint: median survival time, dose: 50.0 mg/kg/injection, schedule: Q02DX009 (ip), vehicle: Klucel (hydroxypropylcellulose) (HPC), higher = longer survival) 87 % of control; (endpoint: median survival time, dose: 100.0 mg/kg/injection, schedule: Q02DX009 (ip), vehicle: Klucel (hydroxypropylcellulose) (HPC), higher = longer survival) 109 % of control; (endpoint: median survival time, dose: 200.0 mg/kg/injection, schedule: Q02DX009 (ip), vehicle: Klucel (hydroxypropylcellulose) (HPC), higher = longer survival) 103 % of control; (endpoint: median survival time, dose: 400.0 mg/kg/injection, schedule: Q02DX009 (ip), vehicle: Klucel (hydroxypropylcellulose) (HPC), higher = longer survival) 96 % of control.

Regarding `C=C1c2[nH]c3ccccc3c2CN2CCC1/C(=C/C)C2` (stereo unspecified), the T/C (endpoint: mean tumor weight, dose: 0.5 mg/kg/injection, schedule: Q01DX011 (ip), vehicle: saline, higher = larger tumour) is 104 % of control; the T/C (endpoint: mean tumor weight, dose: 1.0 mg/kg/injection, schedule: Q01DX011 (ip), vehicle: saline, higher = larger tumour) was 74 % of control; the T/C (endpoint: mean tumor weight, dose: 2.0 mg/kg/injection, schedule: Q01DX011 (ip), vehicle: saline, higher = larger tumour) is 102 % of control.

With `NC(=S)c1cn(C2OC(CO)C(O)C2O)c2ncnc(N)c12` (stereo unspecified), the T/C is 111 % of control (endpoint: median survival time, dose: 0.31 mg/kg/injection, schedule: Q01DX009 (ip), vehicle: saline with Tween-80, higher = longer survival); 88 % of control (endpoint: median survival time, dose: 0.62 mg/kg/injection, schedule: Q01DX009 (ip), vehicle: saline with Tween-80, higher = longer survival); 94 % of control and 101 % of control (endpoint: median survival time, dose: 2.5 mg/kg/injection, schedule: Q01DX009 (ip), vehicle: saline with Tween-80, higher = longer survival); 101 % of control (endpoint: median survival time, dose: 5.0 mg/kg/injection, schedule: Q01DX009 (ip), vehicle: saline with Tween-80, higher = longer survival).

As to `CC(C)=CCC/C(C)=C/C=O`, the T/C (endpoint: mean tumor weight, dose: 50.0 mg/kg/injection, schedule: Q01DX010 (ip), vehicle: saline, higher = larger tumour) was 84 % of control and the T/C (endpoint: mean tumor weight, dose: 100.0 mg/kg/injection, schedule: Q01DX010 (ip), vehicle: saline, higher = larger tumour) is 61 % of control.

For `CC(=O)NNC(=O)c1ccccc1CO`, the T/C reads like this: (endpoint: median survival time, dose: 25.0 mg/kg/injection, schedule: Q01DX009 (ip), vehicle: saline with Tween-80, higher = longer survival) 95 % of control; (endpoint: median survival time, dose: 50.0 mg/kg/injection, schedule: Q01DX009 (ip), vehicle: saline with Tween-80, higher = longer survival) 95 % of control; (endpoint: median survival time, dose: 100.0 mg/kg/injection, schedule: Q01DX009 (ip), vehicle: saline with Tween-80, higher = longer survival) 98 % of control; (endpoint: median survival time, dose: 200.0 mg/kg/injection, schedule: Q01DX009 (ip), vehicle: saline with Tween-80, higher = longer survival) 93 % of control.
